In series [1] the test system is HIV-1 NL4-3. Nature of the series: HIV replication assay in TZM-b1 cells, luciferase. The series is classed as cell-based. As to conditions: for antiviral effect on HIV replication: HIV-1 infected TZM-b1 cells treated daily with serial dilutions for 4 days; for EC50: Human immunodeficiency virus 1, NL43, TZM-b1, 96 h, read-out: EC50, HIV replication.
Series [2] relates to HeLa-derived TZM-b1 cells. In words: Viability of HIV-1 infected TZM-b1 cells. The series is classed as cell-based, human. The following applies: HIV-1 infected TZM-b1 cells treated daily for 4 days. From the text:
To test the hypothesis that AAK1 and GAK are important for HIV infection, HeLa-derived TZM-b1 cells were used, which express CD4, CCR5 and CXCR4, as well as β-galactosidase and firefly luciferase reporter genes responsive to HIV transcription (Wei et al., Antimicrobial agents and chemotherapy 46:1896-1905, 2002). Cells were transfected with siRNAs targeting AAK1, GAK or a NT sequence followed by infection with the infectious HIV-1 NL4-3 clone (Adachi et al., J Virol 59:284-291, 1986), as described (Zhou et al., Cell Host & Microbe 4:495-504, 2008). Luciferase activity was measured at 96 hr postinfection.
Following 24, 48, and 72 hrs of treatment with inhibitory compounds or silencing with siRNAs, cells were incubated for 2-4 hrs at 37° C. in the presence of 10% AlamarBlue reagent (TREK Diagnostic Systems), as described (Einav et al., Nature Biotechnology 26, 1019-1027, 2008). Plates were then scanned and fluorescence was detected by using FLEXstation II 384 (Molecular Devices, Inc.).

Series [3] relates to core-AP2M1 binding. In words: Core-AP2M1 co-immunoprecipitation in membranes of HCV infected Huh-7.5 cells. The following applies: membranes of Huh-7.5 cells infected with J6/JFH, 100 nM calyculin-A. The series is classed as cell-based, HCV core / human AP2M1. The method, then: To determine whether core binds AP2M1 in the context of authentic HCV infection, co-immunoprecipitation assays in membrane fractions prepared from Huh-7.5 cells infected with cell culture-grown HCV (J6/JFH) were performed (Lindenbach et al., Science 309:623-626, 2005). AP2M1 could bring down core when anti-AP2M1 antibodies but not IgG controls were added to the membrane lysates. […] (FIG. 2D). […] Colocalization of core with AP2M1 in Huh-7.5 cells 72 hr following electroporation with J6/JFH HCV RNA was also investigated.
Membranes were prepared from ˜20×10^6 Huh-7.5 cells infected with HCV (J6/JFH) (Lindenbach, et al., Science 309, 623-626, 2005), as previously described (Einav et al., J Virol 78, 11288-11295, 2004). Briefly, cells were collected by trypsinization, washed once with PBS and resuspended in HME buffer (20 mM HEPES [pH 7.4], 1 mM EDTA, 2 mM MgCl2), supplemented with phenylmethylsulfonyl fluoride to a final concentration of 1 mM and a protease inhibitors cocktail (Sigma). Cells were lysed by two cycles of freeze-thaw in dry ice-ethanol and then passaged through a 27.5-gauge needle 10 times. Nuclei were removed by centrifugation at 250×g for 10 min, and the postnuclear supernatant was subjected to ultracentrifugation at 100,000×g for 30 min to obtain the membrane preparation. All steps were done at 4° C. […] Immunoprecipitates were analyzed by western blotting. […]

Each structure is given as a SMILES string.

Turning to `CO[C@@H]1[C@H](N(C)C(=O)c2ccccc2)C[C@H]2O[C@]1(C)n1c3ccccc3c3c4c(c5c6ccccc6n2c5c31)C(=O)NC4` [PKC-412], in series [1], the “antiviral effect on HIV replication” value was “significant dose response antiviral effect”. Further, in series [2], the effect on viability result is “no effect on viability”.

`COC[C@@H]([C@H](O)[C@H](O)C(=O)NCC[C@H](C)c1nc(/C=C/C[C@@H]2O[C@]3(C[C@@H](O)[C@@H]2C)O[C@H]([C@H](C[C@H](O)[C@H](C)[C@H](O)[C@H](C)/C=C(C)/C(C)=C/C=C/C(C)=C\C#N)OC)[C@H](OP(=O)(O)O)C3(C)C)co1)N(C)C` [calyculin A]: in series [3], the “binding of core to AP2M1 (co-immunoprecipitation)” value is listed as “significantly augmented”.

Turning to `C#Cc1cccc(Nc2ncnc3cc(OCCOC)c(OCCOC)cc23)c1` [erlotinib], in series [1], the “antiviral effect on HIV replication” value is “significant dose response antiviral effect” and the concentration for a half-maximal effect (EC50) was determined as 1400 ± 300 nM. For the same compound, the effect on viability entry in series [2] is given as “no effect on viability”.

For the compound `CCN(CC)CCNC(=O)c1c(C)[nH]c(/C=C2\C(=O)Nc3ccc(F)cc32)c1C` [sunitinib], the EC50 in series [1] came to 800 ± 400 nM. Also, in series [2], the effect on viability result is “no effect on viability”.
